According to PubChem BioAssay (NCI):
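Values below derive from 48-hour exposures of cells grown in 96-well plates, with endpoints linearly interpolated between the two concentrations bracketing the appropriate inhibition level. GI50: concentration for 50% inhibition of growth. At the TGI there is no net growth.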

Experiments:
Test in all cases: NCI-60 cell line screen, 48 h
ACHN renal = tested on: ACHN renal
HL-60(TB) leukemia = tested on: HL-60(TB) leukemia
KM12 colon = tested on: KM12 colon
MCF7 breast = tested on: MCF7 breast
RPMI-8226 leukemia = tested on: RPMI-8226 leukemia
RXF 393 renal = tested on: RXF 393 renal
SF-295 CNS = tested on: SF-295 CNS
SR leukemia = tested on: SR leukemia
T-47D breast = tested on: T-47D breast
TK-10 renal = tested on: TK-10 renal

Row | Compound | GI50 (ACHN renal) [µM] | TGI (ACHN renal) [µM] | GI50 (HL-60(TB) leukemia) [µM] | TGI (HL-60(TB) leukemia) [µM] | GI50 (KM12 colon) [µM] | TGI (KM12 colon) [µM] | GI50 (MCF7 breast) [µM] | TGI (MCF7 breast) [µM] | GI50 (RPMI-8226 leukemia) [µM] | TGI (RPMI-8226 leukemia) [µM] | GI50 (RXF 393 renal) [µM] | TGI (RXF 393 renal) [µM] | GI50 (SF-295 CNS) [µM] | TGI (SF-295 CNS) [µM] | GI50 (SR leukemia) [µM] | TGI (SR leukemia) [µM] | GI50 (T-47D breast) [µM] | TGI (T-47D breast) [µM] | GI50 (TK-10 renal) [µM] | TGI (TK-10 renal) [µM]
1 | C#CCOc1ccc2ncnc(Nc3ccc(NC(=O)CCl)cc3)c2c1 | 11 | 23.3 | 5.91 | 25.2 | 8.54 | 23.7 | 3.61 | 15.9 | 3.88 | 18.1 | 4.64 | 17.9 | 10.1 | 24.5 | 2.69 | 15 | 8.4 | 31.9 | 13.7 | 42.7
2 | COc1cccc(Cn2cc3c(c2)-c2oncc2CC3)c1 | 0.876 | > 100 | 0.247 | 0.762 | 0.379 | 3.02 | 0.378 | > 100 | 0.365 | – | 0.368 | – | 0.245 | 1.04 | 0.312 | 6.03 | 0.246 | 6.38 | 0.803 | > 100
3 | CC(=O)NCCCCCCNC(C)=O | – | > 10000 | – | 9000 | – | > 10000 | – | > 9380 | – | > 10000 | – | > 10000 | – | > 10000 | – | > 10000 | – | > 10000 | – | > 10000
4 | O=C(c1ccco1)c1c(C(F)(F)F)nc2cc(C(F)(F)F)ccc2[n+]1[O-] | 82.1 | > 100 | > 100 | > 100 | > 100 | > 100 | 35.3 | > 100 | 34.4 | > 100 | 20.3 | 80 | 17.5 | 40.4 | 33.7 | > 100 | 18.9 | 49.6 | 28.6 | > 100
5 | C=C1C(=O)O[C@H]2[C@H]1[C@H](OC(=O)/C(C)=C\C)C[C@]1(CO1)[C@@H]1[C@H](OC(C)=O)C=C(C)[C@]21O | – | 24.5 | – | 12.9 | – | 41.4 | – | 29.1 | – | 15.2 | – | 25.6 | – | > 100 | – | 28.5 | – | 36.5 | – | 23.1
